Test results published in the supplement of paper PMC3974653.
Counter-ions that a name gives are not always drawn.

System: MTT (mouse pheochromocytoma)
Assay: IC50 of cell viability (ATP content)
Settings: (24 or 48 h)
In short: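 After overnight culture at 37°C, 5% CO2 in white 1536-well plates, MTT mouse pheochromocytoma cells were given 23 nl of library compound in DMSO by pintool across 8 concentrations, spanning final 0.5 nM to 46 µM. Following 24 or 48 hrs, CellTiter-Glo luminescence was read after 15 minutes and normalised against positive-control (100%) and DMSO (0%) wells. A four-parameter logistic model provided the IC50.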

Q: `COc1ccc([C@]2(C#N)CC[C@H](C(=O)O)CC2)cc1OC1CCCC1` [CILOMILAST] was tested. Which “IC50 of cell viability” value did it give?
A: Its value is > 46 µM.

Q: `COC(=O)c1cccnc1` [METHYL NICOTINATE] was tested. Which “IC50 of cell viability” value did it give?
A: Its value is > 46 µM.

Q: With `Nc1c(Cl)c(Cl)c(Cl)c(Cl)c1Cl` [Pentachloroaniline] as the molecule, how does the “IC50 of cell viability” value read?
A: The value was > 46 µM.

Q: With `Cn1c(NCCN(CCO)CCCc2ccc([N+](=O)[O-])cc2)cc(=O)n(C)c1=O` [Nifekalant] as the molecule, how does the “IC50 of cell viability” value read?
A: The value was > 46 µM.

Q: With `O=C(CCCN1CCN2CCCC2C1)c1ccc(F)cc1` (configuration not stated) [Azabuperona] as the molecule, how does the “IC50 of cell viability” value read?
A: Its value is > 46 µM.

Q: Which “IC50 of cell viability” value does the source give for `CN(C(=O)CO)c1c(I)c(C(=O)NCC(O)CO)c(I)c(C(=O)NCC(O)CO)c1I` (configuration not stated) [Iomeprol] here?
A: Its value is > 46 µM.

Q: For `O=C(OCCN1CCCCC1)C(O)(c1ccccc1)c1ccccc1` [PIPETHANATE HYDROCHLORIDE], which “IC50 of cell viability” value is on record?
A: Its value is > 46 µM.

Q: Which “IC50 of cell viability” value does the source give for `COc1cc2c(cc1OC)[C@@H](Cc1cc(OC)c(OC)c(OC)c1)[N+](C)(CCCOC(=O)CC/C=C/CCC(=O)OCCC[N+]1(C)CCc3cc(OC)c(OC)cc3[C@H]1Cc1cc(OC)c(OC)c(OC)c1)CC2` (some centres not stated) [MIVACURIUM CHLORIDE] here?
A: Its value is > 46 µM.

Q: Which “IC50 of cell viability” value does the source give for `C[C@@H](O[C@@H]1OCCN(Cc2nc(=O)[nH][nH]2)[C@@H]1c1ccc(F)cc1)c1cc(C(F)(F)F)cc(C(F)(F)F)c1` [Aprepitant] here?
A: Its value is > 46 µM.

Q: How did the “IC50 of cell viability” value turn out when `CC(C)(C)NC(=O)[C@H]1CC[C@H]2[C@@H]3CC=C4C=C(C(=O)O)CC[C@@]4(C)[C@H]3CC[C@]12C` [Epristeride] was run?
A: Its value is > 46 µM.

Q: Which “IC50 of cell viability” value does the source give for `Cc1cc(C)nc(N[S+](=O)([O-])c2ccc(N)cc2)n1` [Sulfamethazine] here?
A: The value was > 46 µM.

Q: With `OCCc1ccccc1` [2-Phenylethanol] as the molecule, how does the “IC50 of cell viability” value read?
A: The value was > 46 µM.

Q: For `Cc1cc(Nc2ccccc2C(=O)O)ccc1Cl` [Benzoic acid, 2-[(4-chloro-3-methylphenyl)amino]-], which “IC50 of cell viability” value is on record?
A: Its value is > 46 µM.

Q: Which “IC50 of cell viability” value does the source give for `[Na+].CC1(C)S[C@H]2[C@H](NC(=O)[C@@H](NC(=O)N3CCNC3=O)C4=CC=CC=C4)C(=O)[N@]2[C@H]1C([O-])=O` [Azlocillin sodium salt] here?
A: Its value is > 46 µM.

Q: Which “IC50 of cell viability” value does the source give for `CCC(=O)OC1(c2ccccc2)CCN(C)CC1C` (configuration not stated) [BETAPRODINUM] here?
A: Its value is > 46 µM.

Q: With `CCOC(=O)C(CCc1ccccc1)NC(C)C(=O)N1Cc2cc(OC)c(OC)cc2CC1C(=O)O` (configuration not stated) [MOEXIPRIL HYDROCHLORIDE] as the molecule, how does the “IC50 of cell viability” value read?
A: The value was > 46 µM.

Q: `Cc1[nH]cnc1CN1CCc2c(c3ccccc3n2C)C1=O` [ALOSETRON HYDROCHLORIDE] was tested. Which “IC50 of cell viability” value did it give?
A: Its value is > 46 µM.

Q: Which “IC50 of cell viability” value does the source give for `ClCC1CO1` (configuration not stated) [1,2-Epoxy-3-chloropropane (Epichlorohydrin)] here?
A: The value was > 46 µM.

Q: For `CC(CCc1ccc2c(c1)OCO2)NN` (configuration not stated) [SAFRAZINE HYDROCHLORIDE], which “IC50 of cell viability” value is on record?
A: Its value is > 46 µM.

Q: For `O=C(O)C(Cc1cc(I)c(O)c(I)c1)c1ccccc1` (configuration not stated) [PHENIODOLUM NATRICUM], which “IC50 of cell viability” value is on record?
A: Its value is > 46 µM.

Q: With `[O-][n+]1cc[n+]([O-])c2ccccc21` [Quindoxin] as the molecule, how does the “IC50 of cell viability” value read?
A: Its value is > 46 µM.

Q: How did the “IC50 of cell viability” value turn out when `O=C(O)Cc1cccc(-c2cc(CCCCCCc3ccc(O[C@H]4O[C@H](CO)[C@@H](O)[C@H](O)[C@@H]4O)c(-c4cccc(CC(=O)O)c4)c3)ccc2O[C@H]2O[C@H](CO)[C@@H](O)[C@H](O)[C@@H]2O)c1` [BIMOSIAMOSE DISODIUM] was run?
A: The value was > 46 µM.
